Counter-ions that a name gives are not always drawn. Like-named read-outs stand apart in the source and are kept apart here. Blank lines part the entries; values can stand above or below the molecule they belong to.
Key:
[1] = target: MDM2-p53 interaction (in vitro translated MDM2, biotinylated IP3 peptide) (Homo sapiens, UniProt Q00987); assay: MDM2-p53 interaction 96-well plate binding assay (ELISA); details: for inhibition at 0.03 µM: @ 0.030 μM
[2] = system: SJSA-1; assay: Protocol B: SJSA-1 CellTiter-Glo cell viability; details: for IC50: Homo sapiens, SJSA-1, 72 h
[3] = @ 0.30 μM, read-out: MDM2 % @ concentration
[4] = @ 0.10 μM, read-out: MDM2 % @ concentration
[5] = @ 0.0010 μM, read-out: MDM2 % @ concentration
[6] = read-out: MDM2 % @ concentration
[7] = read-out: SJSA1 IC50 (μM) (Protocol B), SJSA-1, Protocol B (CellTiter-Glo), 72 hrs

MDM2-p53 interaction (in vitro translated MDM2, biotinylated IP3 peptide), sequence (Q00987 whole entry): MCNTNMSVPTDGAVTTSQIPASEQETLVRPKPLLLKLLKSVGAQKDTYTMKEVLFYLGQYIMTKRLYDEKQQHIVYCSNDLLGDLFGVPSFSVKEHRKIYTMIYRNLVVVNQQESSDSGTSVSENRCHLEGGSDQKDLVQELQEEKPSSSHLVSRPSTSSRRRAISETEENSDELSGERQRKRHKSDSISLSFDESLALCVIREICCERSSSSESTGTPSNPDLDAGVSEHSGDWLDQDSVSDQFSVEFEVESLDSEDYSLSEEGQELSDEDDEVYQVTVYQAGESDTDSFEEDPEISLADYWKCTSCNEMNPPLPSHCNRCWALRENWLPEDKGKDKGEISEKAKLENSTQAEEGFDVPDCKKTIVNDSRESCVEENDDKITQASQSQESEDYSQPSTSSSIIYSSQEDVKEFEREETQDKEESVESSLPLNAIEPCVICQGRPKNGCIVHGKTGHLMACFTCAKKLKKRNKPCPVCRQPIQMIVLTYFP

Compound: CO[C@]1(c2ccc(Cl)cc2)c2ccc(C(C)(O)CN3CCNC3=O)cc2C(=O)N1Cc1ccc(Cl)cn1 (single isomer, unassigned) [Example 157]
inhibition at 0.3 µM [1, 3]: 39%

Compound: CO[C@]1(c2ccc(Cl)cc2)c2ccc(C(C)(O)CN3CCNC3=O)cc2C(=O)N1Cc1ccc(Cl)cn1 (single isomer, unassigned) [Example 158]
inhibition at 0.1 µM [1, 4]: 57%

Compound: CO[C@]1(c2ccc(Cl)cc2)c2ccc(C(C)(O)CN3CCOCC3=O)cc2C(=O)N1Cc1ccc(Cl)cn1 (single isomer, unassigned) [Example 327]
inhibition at 0.3 µM [1, 3]: 42%

Compound: CO[C@]1(c2ccc(Cl)cc2)c2ccc(C(C)(O)CN3CC(=O)NC3=O)cc2C(=O)N1Cc1ccc(Cl)cn1 (single isomer, unassigned) [Example 330]
MDM2 % @ concentration ([1]; @ 0.30 μM): 36% @ 0.30

Compound: CCC(O)(c1cc(F)c2c(c1)C(=O)N(Cc1ccc(C#N)cn1)[C@@]2(O[C@H]1CCOC1)c1ccc(Cl)cc1)C1(F)CCOCC1 (single isomer, unassigned) [Example 445]
MDM2 % @ concentration ([1]; @ 0.0010 μM): 43% @ 0.0010
inhibition at 0.1 µM ([1]; read-out: MDM2 % @ concentration, @ 0.10 μM): 56%

Compound: CCC(O)(c1cc(F)c2c(c1)C(=O)N(Cc1ncc(C#N)cn1)[C@@]2(OCC1(C#N)CC1)c1ccc(Cl)cc1)c1cn(C)cn1 (single isomer, unassigned) [Example 463]
inhibition at 0.1 µM [1, 4]: 73%

Compound: CCCC(O)(c1cc(F)c2c(c1)C(=O)N(Cc1ccc(C#N)cn1)[C@@]2(O[C@H]1CCOC1)c1ccc(Cl)cc1)c1cn(C)cn1 (single isomer, unassigned) [Example 473]
inhibition at 0.1 µM [1, 4]: 44%

Compound: CCC(O)(c1cc(F)c2c(c1)C(=O)N(Cc1ncc(Cl)cc1O)[C@@]2(O[C@H]1C[C@@H](O)C1)c1ccc(Cl)cc1)c1cn(C)cn1 (single isomer, unassigned) [Example 488]
inhibition at 0.1 µM [1, 4]: 56%

Compound: CCC(O)(c1cc(F)c2c(c1)C(=O)N(Cc1ccc(C#N)cn1)[C@@]2(OC[C@@H](C)O)c1ccc(Cl)cc1)C1(F)CCOCC1 (single isomer, unassigned) [Example 498]
inhibition at 0.1 µM [1, 4]: 32%
SJSA1 (Protocol B) % at concentration ([2]; SJSA-1, Protocol B, at 10 μM): 96% at 10

Compound: C[C@@H](c1ccc(Cl)cn1)N1C(=O)c2cc(C(C)(C)O)cc(F)c2[C@]1(OCC1(C(N)=O)CC1)c1ccc(Cl)cc1 [Example 70, 1-({[(1R)-1-(4-chlorophenyl)-2-[(1S)-1-(5-chloropyridin-2-yl)ethyl]-7-fluoro-5-(2-hydroxypropan-2-yl)-3-oxo-2,3-dihydro-1H-isoindol-1-yl]oxy}methyl)cyclopropane-1-carboxamide]
IC50 [1]: 3.2 nM

Compound: C[C@H](c1ccc(Cl)cn1)N1C(=O)c2cc(C(C)(C)O)cc(F)c2[C@]1(OCC1(C(N)=O)CC1)c1ccc(Cl)cc1 [Example 71, 1-({[(1R)-1-(4-chlorophenyl)-2-[(1R)-1-(5-chloropyridin-2-yl)ethyl]-7-fluoro-5-(2-hydroxypropan-2-yl)-3-oxo-2,3-dihydro-1H-isoindol-1-yl]oxy}methyl)cyclopropane-1-carboxamide]
IC50 [1]: 82 nM

Compound: CO[C@]1(c2ccc(Cl)cc2)c2ccc(C(C)(O)C(=O)NCCN(C)C)cc2C(=O)N1Cc1ccc(Cl)cn1 (stereo partly drawn) [Example 149, 2-[(1R)-1-(4-Chlorophenyl)-2-[(5-chloropyridin-2-yl)methyl]-1-methoxy-3-oxo-2,3-dihydro-1H-isoindol-5-yl]-N-[2-(dimethylamino)ethyl]-2-hydroxypropanamide]
inhibition at 1 µM ([1]; @ 1.0 μM, read-out: MDM2 % @ concentration): 53%

Compound: CO[C@]1(c2ccc(Cl)cc2)c2ccc(C(C)(O)C(=O)NCCN(C)C)cc2C(=O)N1Cc1ccc(Cl)cn1 (stereo partly drawn) [Example 150, 2-[(1R)-1-(4-Chlorophenyl)-2-[(5-chloropyridin-2-yl)methyl]-1-methoxy-3-oxo-2,3-dihydro-1H-isoindol-5-yl]-N-[2-(dimethylamino)ethyl]-2-hydroxypropanamide]
inhibition at 0.1 µM [1, 4]: 49%

Compound: CC[C@@](O)(c1cc(F)c2c(c1)C(=O)N(Cc1ncc(C#N)cn1)[C@@]2(O[C@H]1CCOC1)c1ccc(Cl)cc1)C1(F)CCOCC1 [Example 507, 2-{[(1R)-1-(4-chlorophenyl)-7-fluoro-5-[(1R)-1-(4-fluorooxan-4-yl)-1-hydroxypropyl]-3-oxo-1-[(3S)-oxolan-3-yloxy]-2,3-dihydro-1H-isoindol-2-yl]methyl}pyrimidine-5-carbonitrile]
IC50 [2, 7]: 0.02 µM

Compound: CCC(O)(c1cc(F)c2c(c1)C(=O)N(Cc1ncc(Cl)cn1)[C@@]2(OC)c1ccc(Cl)cc1)[C@H]1CC[C@H](O)CC1 (stereo partly drawn) [Example 511, (3R)-3-(4-chlorophenyl)-2-[(5-chloropyrimidin-2-yl)methyl]-4-fluoro-6-{1-hydroxy-1-[trans-4-hydroxycyclohexyl]propyl}-3-methoxy-2,3-dihydro-1H-isoindol-1-one]
IC50 [2, 7]: 0.018 µM

Compound: CC[C@@](O)(c1cc(F)c2c(c1)C(=O)N(Cc1ncc(Cl)cc1C(=O)O)[C@@]2(OC)c1ccc(Cl)cc1)C1(F)CCOCC1 [Example 514, 5-chloro-2-{[(1R)-1-(4-chlorophenyl)-7-fluoro-5-[(1R)-1-(4-fluorooxan-4-yl)-1-hydroxypropyl]-1-methoxy-3-oxo-2,3-dihydro-1H-isoindol-2-yl]methyl}pyridine-3-carboxylic acid (tris(hydroxymethyl)aminomethane salt)]
IC50 [2, 7]: 0.64 µM

Compound: CC[C@@](O)(c1cc(F)c2c(c1)C(=O)N(Cc1ncc(Cl)cn1)[C@@]2(O[C@H]1C[C@@H](O)C1)c1ccc(Cl)cc1)C1CCN(C)CC1 [Example 560, (3R)-3-(4-chlorophenyl)-2-[(5-chloropyrimidin-2-yl)methyl]-4-fluoro-6-[(1S)-1-hydroxy-1-(1-methylpiperidin-4-yl)propyl]-3-[cis-3-hydroxycyclobutoxy]-2,3-dihydro-1H-isoindol-1-one]
IC50 [2, 7]: 0.13 µM

Compound: CC[C@@](O)(c1cc(F)c2c(c1)C(=O)N(Cc1ncc(Cl)cc1O)[C@@]2(O[C@H]1CCOC1)c1ccc(Cl)cc1)C1CCN(C)CC1 [Example 568, 2-[(5-chloro-3-hydroxypyridin-2-yl)methyl]-3-(4-chlorophenyl)-4-fluoro-6-[(1S)-1-hydroxy-1-(1-methylpiperidin-4-yl)propyl]-3-[(3S)-oxolan-3-yloxy]-2,3-dihydro-1H-isoindol-1-one]
IC50 [2, 7]: 0.094 µM

Compound: [2H]C([2H])(O)C([2H])([2H])O[C@]1(c2ccc(Cl)cc2)c2c(F)cc(C(O)(CC)C3(F)CCN(C)CC3)cc2C(=O)N1Cc1ncc(Cl)cn1 (stereo partly drawn) [Example 580, (3R)-3-(4-chlorophenyl)-2-[(5-chloropyrimidin-2-yl)methyl]-4-fluoro-6-[1-(4-fluoro-1-methylpiperidin-4-yl)-1-hydroxypropyl]-3-[2-hydroxy(1,1,2,2-tetradeutero)ethoxy]-2,3-dihydro-1H-isoindol-1-one]
IC50 [2, 7]: 0.014 µM

Now from value to molecule:

inhibition at 0.001 µM [1, 5]: 62%
Compound: CO[C@]1(c2ccc(Cl)cc2)c2c(F)cc(C(C)(O)C3CCN(C(=O)CO)CC3)cc2C(=O)N1Cc1ccc(Cl)cn1 (single isomer, unassigned) [Example 296]

inhibition at 0.03 µM [1, 6]: 54%
Compound: Cn1cc(C(C)(O)c2cc(F)c3c(c2)C(=O)N(Cc2ncc(F)cc2F)[C@@]3(OCC2(O)CC2)c2ccc(Cl)cc2)cn1 (single isomer, unassigned) [Example 350]

inhibition at 0.1 µM [1, 4]: 25%
Compound: Cn1cc(C(C)(O)c2cc(F)c3c(c2)C(=O)N(Cc2ncc(F)cc2F)[C@@]3(OCC2(O)CC2)c2ccc(Cl)cc2)cn1 (single isomer, unassigned) [Example 351]

inhibition at 0.001 µM [1, 5]: 74%
Compound: CCC(O)(c1cc(F)c2c(c1)C(=O)N(Cc1ccc(C#N)cn1)[C@@]2(O[C@H]1CCOC1)c1ccc(Cl)cc1)c1cnn(C)c1 (single isomer, unassigned) [Example 358]

inhibition at 0.1 µM [1, 4]: 50%
Compound: CCC(O)(c1cc(F)c2c(c1)C(=O)N(Cc1ccc(C#N)cn1)[C@@]2(O[C@H]1CCOC1)c1ccc(Cl)cc1)c1cnn(C)c1 (single isomer, unassigned) [Example 359]

inhibition at 0.001 µM [1, 5]: 62%
IC50 ([2]; read-out: SJSA1 IC50 (Protocol B), SJSA-1 cells, CellTiter-Glo, 72 hrs): 0.58 µM
Compound: Cn1cc(C(C)(O)c2cc(F)c3c(c2)C(=O)N(Cc2ccc(Cl)c[n+]2[O-])[C@@]3(OCC2(CO)CC2)c2ccc(Cl)cc2)cn1 (single isomer, unassigned) [Example 407]

inhibition at 0.1 µM [1, 4]: 65%
Compound: CCC(O)(c1cc(F)c2c(c1)C(=O)N(Cc1ccc(C#N)cn1)[C@@]2(OCCOC)c1ccc(Cl)cc1)c1cn(C)cn1 (single isomer, unassigned) [Example 429]

inhibition at 0.3 µM [1, 3]: 53%
Compound: CO[C@]1(c2ccc(Cl)cc2)c2c(F)cc(C(C)(O)c3cnn(C4CN(C(=O)OC(C)(C)C)C4)c3)cc2C(=O)N1Cc1ccc(Cl)cn1 (single isomer, unassigned) [Example 457]

inhibition at 0.01 µM ([1]; @ 0.010 μM, read-out: MDM2 % @ concentration): 61%
Compound: COc1ccc(CN2C(=O)c3cc(C(C)(O)c4cnn(C)c4)cc(F)c3[C@]2(OCC2(O)CC2)c2ccc(Cl)cc2)nc1 (stereo partly drawn) [Example 228, (3R)-3-(4-chlorophenyl)-4-fluoro-6-[1-hydroxy-1-(1-methyl-1H-pyrazol-4-yl)ethyl]-3-[(1-hydroxycyclopropyl)methoxy]-2-[(5-methoxypyridin-2-yl)methyl]-2,3-dihydro-1H-isoindol-1-one]

inhibition at 0.03 µM [1, 6]: 49%
Compound: CC(C)(O)c1cc(F)c2c(c1)C(=O)N([C@H](c1ccc(Cl)cn1)C(O)CO)[C@@]2(OCC1(O)CC1)c1ccc(Cl)cc1 (stereo partly drawn) [Example 331, (3R)-3-(4-Chlorophenyl)-2-[(1R)-1-(5-chloropyridin-2-yl)-2,3-dihydroxypropyl]-4-fluoro-3-[(1-hydroxycyclopropyl)methoxy]-6-(2-hydroxypropan-2-yl)-2,3-dihydro-1H-isoindol-1-one]

inhibition at 0.1 µM [1, 4]: 63%
Compound: COc1ccc(CN2C(=O)c3cc(C(C)(O)c4cnn(C)c4)cc(F)c3[C@]2(OCC2(O)CC2)c2ccc(Cl)cc2)nc1 (stereo partly drawn) [Example 347, (3R)-3-(4-chlorophenyl)-4-fluoro-6-[1-hydroxy-1-(1-methyl-1H-pyrazol-4-yl)ethyl]-3-[(1-hydroxycyclopropyl)methoxy]-2-[(5-methoxypyridin-2-yl)methyl]-2,3-dihydro-1H-isoindol-1-one]
